For the assay, the target named is T1, Dihydrofolate reductase (Pneumocystis carinii, UniProt P16184).
T1 sequence (P16184 whole entry): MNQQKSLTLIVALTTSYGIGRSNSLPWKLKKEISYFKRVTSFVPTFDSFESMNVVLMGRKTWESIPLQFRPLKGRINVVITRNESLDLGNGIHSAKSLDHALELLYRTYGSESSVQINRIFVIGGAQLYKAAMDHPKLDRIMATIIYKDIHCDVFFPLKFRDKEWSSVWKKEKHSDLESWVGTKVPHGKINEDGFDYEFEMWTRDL
Description: Inhibition of Pneumocystis carinii DHFR.
As usually defined, the IC50 is the concentration at which inhibition is half-maximal. The low end stands for higher potency, the high end for lower potency. `N=C(N)c1ccc(N2CCN(c3ccc(-c4nc5ccccc5[nH]4)cc3)CC2)cc1` returned an IC50 of 170 nM.

Regarding `CCc1nc(N)nc(N)c1-c1ccc(Cl)c(N(C)Cc2ccccc2)c1`, the midpoint of inhibition, the IC50, lay at 1070 nM.

For `COc1cc(C)c2c(OC3CCCCC3C(F)(F)F)c(OC)cc(NC(C)CCCN)c2n1` (stereo not given), the midpoint of inhibition, the IC50, lay at 711 nM.

The molecule `COc1cc(Cc2cnc(N)nc2N)cc(C#CCCC(=O)O)c1OC` displayed a 50% inhibitory concentration (IC50) of 1000 nM.

As to `CCc1nc2nc(N)nc(N)c2nc1CC`, the IC50 came to 620 nM. This IC50 is about 1.6-fold lower than that of the molecule before.

(Values after ChEMBL document CHEMBL3045753, “In silico ligand-based pharmacophore model generation for the identification of novel Pneumocystis carinii DHFR inhibitors” (Med Chem Res, 2013).)
